Results: EP2399598B1, “Blockade of CCL18 signaling via CCR6 as a therapeutic option in fibrotic diseases and cancer” (Universitätsklinikum Freiburg, priority 2010, dated 2014)
Entries after “also recorded” stand apart in the source; their conditions may differ.

System: CCR6
Assay: Inhibition of CCL18-induced CCR6 down-regulation on mononuclear cells (flow cytometry)
Assay type: cell-based
Conditions: freshly isolated human lymphocytes/PBMNC, 20 minutes, FACS; for CCL18 induced down-regulation of CCR6 expression: CCL18 10 ng/ml plus inhibitor 100 ng/ml
Experimental: Freshly isolated mononuclear cells were incubated for 20 minutes with 10 ng/ml of CCL18, 100ng/ml of the inhibitor peptide PS-AU-105 (polypeptide according to SEQ ID NO.:1), a combination of both or were left untreated. The incubation was performed in RPMI1640 with 10% fetal calf serum and 100 U/ml Streptomycin/Penicillin at 37°C. After the incubation, the cells were centrifugated and the supernatant was discarded. The cells were fixed with 4% paraformaldehyde for 5 minutes on ice and washed twice in PBS containing 1% FCS. After fixation the cells were stained using a fluorescein-conjugated antibody against CCR6 (R&D systems, Wiesbaden, FRG) and analyzed by flow cytometry (FACScalibur and Quantiquest; both Beckon Dickinson, Franklin Lakes, USA).
This CCL18 induced redaction of CCR6 expression is diminished in the presence of the inhibitor peptide PS-AU-105 (polypeptide according to SEQ ID No.: 1).

Question: Which results are given for “PS-AU-105: inhibitor peptide, polypeptide according to SEQ ID NO.:1; 29 amino acids, artificial, peptide inhibitor of CCR6 (EDCCLVYTSWQIHPKFIVDYSETSPQCPK)”?
Answer: CCL18 induced down-regulation of CCR6 expression: diminished; also recorded: fails to down-regulate the CCR6^+ sub-population; CCL18 induced down-regulation of CCR6 expression (listed as PS-AU-1015): this down-regulation docs not occur; CCR6 expression, inhibitor only (inhibitor 100 ng/ml alone): no effect
